Experimental findings from PMC6402034 (Biochemical Journal, 2019) are described below.

Structures are written as SMILES.

Test [1] has as its target T1, ALA2 (aminophospholipid ATPase 2) (Arabidopsis thaliana, UniProt P98205).
T1 sequence (P98205 1-1107): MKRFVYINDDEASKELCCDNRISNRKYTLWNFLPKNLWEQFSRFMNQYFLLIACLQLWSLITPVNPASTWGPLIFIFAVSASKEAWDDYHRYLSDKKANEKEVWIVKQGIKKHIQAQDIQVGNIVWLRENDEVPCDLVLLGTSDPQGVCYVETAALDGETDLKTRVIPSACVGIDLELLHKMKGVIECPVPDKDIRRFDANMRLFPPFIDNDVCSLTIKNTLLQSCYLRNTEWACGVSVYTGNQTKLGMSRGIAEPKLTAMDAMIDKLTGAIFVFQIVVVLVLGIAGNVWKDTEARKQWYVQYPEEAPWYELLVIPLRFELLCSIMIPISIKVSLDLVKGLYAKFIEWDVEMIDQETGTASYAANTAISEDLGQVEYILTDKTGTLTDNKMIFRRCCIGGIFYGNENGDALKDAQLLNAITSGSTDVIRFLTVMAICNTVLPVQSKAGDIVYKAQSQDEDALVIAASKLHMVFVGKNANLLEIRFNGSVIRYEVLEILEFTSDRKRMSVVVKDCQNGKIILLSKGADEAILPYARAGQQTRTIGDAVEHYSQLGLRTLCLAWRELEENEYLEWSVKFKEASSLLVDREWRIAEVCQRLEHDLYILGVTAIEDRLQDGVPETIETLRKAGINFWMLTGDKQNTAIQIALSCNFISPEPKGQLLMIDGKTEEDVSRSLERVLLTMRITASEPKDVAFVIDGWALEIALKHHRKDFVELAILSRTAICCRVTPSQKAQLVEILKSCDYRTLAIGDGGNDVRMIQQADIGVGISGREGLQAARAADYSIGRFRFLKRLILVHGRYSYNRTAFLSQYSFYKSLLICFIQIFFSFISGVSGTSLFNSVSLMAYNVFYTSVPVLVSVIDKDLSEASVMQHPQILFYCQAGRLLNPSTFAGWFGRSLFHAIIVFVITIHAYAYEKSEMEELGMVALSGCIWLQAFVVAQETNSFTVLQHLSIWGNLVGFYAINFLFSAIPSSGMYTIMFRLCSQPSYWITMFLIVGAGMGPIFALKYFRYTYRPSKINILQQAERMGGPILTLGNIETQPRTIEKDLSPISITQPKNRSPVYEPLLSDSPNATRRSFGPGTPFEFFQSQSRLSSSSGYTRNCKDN
T1 sequence (Q8L8W0 2-350 partner): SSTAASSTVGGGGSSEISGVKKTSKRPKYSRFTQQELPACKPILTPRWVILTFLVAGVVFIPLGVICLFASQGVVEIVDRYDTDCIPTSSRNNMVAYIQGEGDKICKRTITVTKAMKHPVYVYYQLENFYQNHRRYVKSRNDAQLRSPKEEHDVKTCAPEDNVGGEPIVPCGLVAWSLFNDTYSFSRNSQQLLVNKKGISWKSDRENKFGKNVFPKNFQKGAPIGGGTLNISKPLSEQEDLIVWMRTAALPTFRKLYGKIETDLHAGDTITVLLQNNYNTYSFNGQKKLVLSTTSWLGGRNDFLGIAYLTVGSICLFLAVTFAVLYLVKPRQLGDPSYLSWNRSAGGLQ
Nature of the test: lipid-stimulated ATPase activity of purified complex. In kind it is biochemical.

For test [2], the target named is T1, ALA2 (aminophospholipid ATPase 2). The test is described as above. Type of test: biochemical. This is another data set of the same source.
For test [3] the target is unchanged.

For `CCCCCCCC/C=C\CCCCCCCC(=O)O[C@H](COC(=O)CCCCCCCCCCCCCCC)COP(=O)(O)OC[C@@H](N)C(=O)O` [P-D-S, 1-palmitoyl-2-oleoyl-sn-glycero-3-phospho-D-serine], the “lipid-stimulated ATPase activity of purified complex” value in test [1] is reported as “The stereoisomer phosphatidyl-D-serine (P-D-S) was less than half as effective at stimulating ATPase activity compared with PS”. In test [2], `CCCCCCCCCCCCCCCC(=O)OC[C@@H](O)COP(=O)(O)OC[C@H](N)C(=O)O` [Lyso-PS, 1-hexadecanoyl-sn-glycero-3-phospho-L-serine] returned a concentration for a half-maximal effect (EC50) of 34 ± 7 µM. In the case of `[O]=[V]([OH])([OH])[OH]` [orthovanadate], the IC50 in test [3] was ~22 µM.
